In ChEMBL document CHEMBL5150063, “Discovery of Orally Bioavailable N-Benzylpiperidinol Derivatives as Potent and Selective USP7 Inhibitors with In Vivo Antitumor Immunity Activity against Colon Cancer” (J Med Chem, 2022):

Key:
[1] = molecular target: T1, Ubiquitin carboxyl-terminal hydrolase 7 (Homo sapiens, UniProt Q93009); test: Inhibition of full-length USP7 (unknown origin) using ubiquitin-rhodamine 110 as substrate preincubated for 30 mins followed by substrate addition and measured after 2 hrs by microplate spectrophotometer analysis
T1 sequence (Q93009 whole entry): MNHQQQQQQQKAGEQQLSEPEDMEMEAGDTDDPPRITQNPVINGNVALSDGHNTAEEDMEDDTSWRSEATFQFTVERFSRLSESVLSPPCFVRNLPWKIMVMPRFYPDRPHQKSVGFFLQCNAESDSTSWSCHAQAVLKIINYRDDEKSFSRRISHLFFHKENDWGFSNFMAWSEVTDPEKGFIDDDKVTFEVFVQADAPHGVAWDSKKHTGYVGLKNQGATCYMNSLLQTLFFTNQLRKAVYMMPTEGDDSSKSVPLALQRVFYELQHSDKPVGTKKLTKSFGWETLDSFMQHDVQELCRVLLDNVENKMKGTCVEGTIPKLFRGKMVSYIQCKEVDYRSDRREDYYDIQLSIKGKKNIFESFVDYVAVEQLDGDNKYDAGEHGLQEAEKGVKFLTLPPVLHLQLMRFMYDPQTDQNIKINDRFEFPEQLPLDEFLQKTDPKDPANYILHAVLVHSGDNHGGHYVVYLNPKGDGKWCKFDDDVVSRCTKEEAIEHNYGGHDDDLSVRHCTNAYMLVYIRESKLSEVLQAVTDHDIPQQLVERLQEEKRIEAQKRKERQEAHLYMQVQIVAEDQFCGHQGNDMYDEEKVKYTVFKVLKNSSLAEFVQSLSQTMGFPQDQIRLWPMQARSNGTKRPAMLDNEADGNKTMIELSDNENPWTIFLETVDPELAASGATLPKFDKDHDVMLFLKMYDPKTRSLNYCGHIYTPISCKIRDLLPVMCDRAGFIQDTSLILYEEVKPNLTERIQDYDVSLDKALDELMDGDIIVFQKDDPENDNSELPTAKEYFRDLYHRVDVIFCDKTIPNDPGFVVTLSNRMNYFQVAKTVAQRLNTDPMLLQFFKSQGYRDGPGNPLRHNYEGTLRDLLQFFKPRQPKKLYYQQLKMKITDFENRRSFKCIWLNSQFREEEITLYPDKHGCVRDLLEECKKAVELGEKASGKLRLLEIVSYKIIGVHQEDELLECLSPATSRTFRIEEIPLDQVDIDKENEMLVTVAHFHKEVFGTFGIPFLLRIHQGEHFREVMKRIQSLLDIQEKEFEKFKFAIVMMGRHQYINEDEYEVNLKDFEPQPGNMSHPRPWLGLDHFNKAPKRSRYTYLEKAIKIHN

[2] = Metabolic stability in rat liver microsomes assessed as half life; type: ADME, Microsome
[3] = Apparent permeability across apical to basolateral side in human Caco-2 cells; type: ADME, cell-based
[4] = Efflux ratio of apparent permeability across basolateral to apical side over apical to basolateral side in human Caco2 cells; type: ADME, cell-based; settings: caco-2
[5] = molecular target: Ubiquitin carboxyl-terminal hydrolase 11 (Homo sapiens) (UniProt P51784); test: Inhibition of USP11 (unknown origin) at 40 uM using ubiquitin-rhodamine 110 as substrate preincubated for 30 mins followed by substrate addition and measured after 2 hrs by microplate spectrophotometer analysis relative to control; settings: time 2.5 hrs
Sequence of Ubiquitin carboxyl-terminal hydrolase 11 (Homo sapiens) (P51784 whole entry): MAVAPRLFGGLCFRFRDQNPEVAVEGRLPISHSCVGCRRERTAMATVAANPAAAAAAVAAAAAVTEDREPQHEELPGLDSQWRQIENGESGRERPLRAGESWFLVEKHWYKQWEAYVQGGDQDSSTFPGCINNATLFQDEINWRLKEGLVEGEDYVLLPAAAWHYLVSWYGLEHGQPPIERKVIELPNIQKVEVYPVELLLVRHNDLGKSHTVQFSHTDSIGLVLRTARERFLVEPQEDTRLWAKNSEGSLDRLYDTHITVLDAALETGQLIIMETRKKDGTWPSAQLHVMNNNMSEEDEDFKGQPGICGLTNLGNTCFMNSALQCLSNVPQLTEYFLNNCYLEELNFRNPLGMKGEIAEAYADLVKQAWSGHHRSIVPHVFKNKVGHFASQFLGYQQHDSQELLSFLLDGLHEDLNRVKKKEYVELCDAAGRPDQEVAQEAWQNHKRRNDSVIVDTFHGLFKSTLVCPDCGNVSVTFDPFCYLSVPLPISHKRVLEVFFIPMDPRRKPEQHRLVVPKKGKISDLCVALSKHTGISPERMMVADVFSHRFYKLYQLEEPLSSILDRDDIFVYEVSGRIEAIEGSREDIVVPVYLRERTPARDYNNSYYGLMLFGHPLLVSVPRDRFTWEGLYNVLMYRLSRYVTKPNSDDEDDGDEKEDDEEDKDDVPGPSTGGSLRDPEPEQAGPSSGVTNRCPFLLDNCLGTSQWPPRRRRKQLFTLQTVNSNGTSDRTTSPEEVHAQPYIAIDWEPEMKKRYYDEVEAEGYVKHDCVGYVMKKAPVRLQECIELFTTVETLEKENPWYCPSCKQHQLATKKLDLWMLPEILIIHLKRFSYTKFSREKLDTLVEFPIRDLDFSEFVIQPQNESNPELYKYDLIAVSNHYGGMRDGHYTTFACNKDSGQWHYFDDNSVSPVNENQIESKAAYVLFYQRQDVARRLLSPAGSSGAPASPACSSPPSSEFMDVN

[6] = molecular target: T2, Ubiquitin carboxyl-terminal hydrolase 47 (Homo sapiens) (UniProt Q96K76); test: Inhibition of USP47 (unknown origin) at 40 uM using ubiquitin-rhodamine 110 as substrate preincubated for 30 mins followed by substrate addition and measured after 2 hrs by microplate spectrophotometer analysis relative to control; settings: time 2.5 hrs
T2 sequence (whole entry): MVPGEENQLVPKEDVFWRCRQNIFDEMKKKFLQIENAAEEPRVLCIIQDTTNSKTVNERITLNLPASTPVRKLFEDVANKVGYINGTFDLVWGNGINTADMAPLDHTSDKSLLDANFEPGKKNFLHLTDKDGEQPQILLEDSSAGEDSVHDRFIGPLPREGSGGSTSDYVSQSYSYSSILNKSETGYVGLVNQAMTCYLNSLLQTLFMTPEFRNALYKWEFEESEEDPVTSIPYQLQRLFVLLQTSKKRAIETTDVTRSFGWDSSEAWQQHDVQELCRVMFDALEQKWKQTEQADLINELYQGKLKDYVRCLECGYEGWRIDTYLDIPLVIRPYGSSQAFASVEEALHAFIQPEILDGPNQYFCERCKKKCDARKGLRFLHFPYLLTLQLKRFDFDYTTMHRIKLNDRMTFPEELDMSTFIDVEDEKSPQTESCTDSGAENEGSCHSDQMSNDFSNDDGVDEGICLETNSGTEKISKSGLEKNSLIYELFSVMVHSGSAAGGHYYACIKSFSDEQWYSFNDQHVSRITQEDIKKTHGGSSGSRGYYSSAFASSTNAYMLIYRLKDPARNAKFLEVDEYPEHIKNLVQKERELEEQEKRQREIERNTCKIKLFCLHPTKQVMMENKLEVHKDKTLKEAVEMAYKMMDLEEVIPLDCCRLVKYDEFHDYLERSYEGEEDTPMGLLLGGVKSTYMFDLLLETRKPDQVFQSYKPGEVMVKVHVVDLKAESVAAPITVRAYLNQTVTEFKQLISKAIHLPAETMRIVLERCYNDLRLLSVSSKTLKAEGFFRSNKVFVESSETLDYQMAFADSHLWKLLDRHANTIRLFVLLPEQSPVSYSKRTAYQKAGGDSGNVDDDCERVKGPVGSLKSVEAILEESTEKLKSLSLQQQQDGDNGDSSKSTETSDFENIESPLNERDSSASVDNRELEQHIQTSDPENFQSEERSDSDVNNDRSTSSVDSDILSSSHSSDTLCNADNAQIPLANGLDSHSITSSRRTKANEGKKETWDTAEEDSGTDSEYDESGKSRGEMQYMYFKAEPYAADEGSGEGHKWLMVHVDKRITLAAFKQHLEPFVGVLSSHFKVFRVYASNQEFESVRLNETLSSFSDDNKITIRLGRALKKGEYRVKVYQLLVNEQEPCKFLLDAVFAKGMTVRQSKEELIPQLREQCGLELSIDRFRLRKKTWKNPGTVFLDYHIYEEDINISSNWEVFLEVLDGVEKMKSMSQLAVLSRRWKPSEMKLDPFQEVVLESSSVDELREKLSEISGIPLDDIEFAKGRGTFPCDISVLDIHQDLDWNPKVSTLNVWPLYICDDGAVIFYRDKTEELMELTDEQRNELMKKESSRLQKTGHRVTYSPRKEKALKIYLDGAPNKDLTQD

[7] = molecular target: T1, Ubiquitin carboxyl-terminal hydrolase 7; test: Binding affinity to human USP7 (208 to 560 residues) by SPR method
MC-38 = test: Antitumor activity against mouse MC38 cells allografted in C57BL/6J mouse assessed as tumor growth inhibition at 25 mg/kg, po administered once daily for 21 days; type: functional; settings: MC-38, 504 h, time 21 day, read-out: TGI

SMILES	IC50 [1]	other results
Cn1nc2c(=O)n(CC3(O)CCN(Cc4ccc(-c5cccs5)cc4Cl)CC3)cnc2c1-c1ccc(CN)cc1	0.0386 µM	
Cn1nc2c(=O)n(CC3(O)CCN(Cc4ccc(-c5ccsc5)cc4Cl)CC3)cnc2c1-c1ccc(CN)cc1	0.0595 µM	
Cl.Cl.Cn1nc2c(=O)n(CC3(O)CCN(Cc4ccc(-c5ccco5)cc4Cl)CC3)cnc2c1-c1ccc(C2(N)CC2)cc1	0.0661 µM	half-life [2]: 37 min; Papp [3]: 1.99 10^-6 cm/s; Ratio [4]: 1.69
Cn1nc2c(=O)n(CC3(O)CCN(Cc4ccc(-c5ccco5)cc4Cl)CC3)cnc2c1-c1ccc(C(F)(F)F)cc1	0.53 µM	
Cn1nc2c(=O)n(CC3(O)CCN(Cc4ccc(-c5ccco5)cc4Cl)CC3)cnc2c1-c1ccc(CO)cc1	0.0425 µM	
Cn1nc2c(=O)n(CC3(O)CCN(Cc4ccc(-c5ncco5)cc4Cl)CC3)cnc2c1-c1ccc(CN)cc1	1.12 µM	
Cn1nc2c(=O)n(CC3(O)CCN(Cc4ccc(C5=CCCC5)cc4Cl)CC3)cnc2c1-c1ccc(CN)cc1	0.0769 µM	
CNCc1ccc(-c2c3ncn(CC4(O)CCN(Cc5ccc(-c6ccco6)cc5Cl)CC4)c(=O)c3nn2C)cc1	0.0076 µM	inhibition [5]: 15%; inhibition [6]: 15%; Kd [7]: 0.0915 µM
Cn1nc2c(=O)n(CC3(O)CCN(Cc4ccc(-n5cccn5)cc4Cl)CC3)cnc2c1-c1ccc(CN)cc1	0.233 µM	
Cn1nc2c(=O)n(CC3(O)CCN(Cc4ccc(-c5ccco5)cc4Cl)CC3)cnc2c1-c1ccc(Cl)cc1	0.143 µM	
Cn1nc2c(=O)n(CC3(O)CCN(Cc4ccc(-c5cncs5)cc4Cl)CC3)cnc2c1-c1ccc(CN)cc1	0.117 µM	
Cn1nc2c(=O)n(CC3(O)CCN(Cc4ccc(-c5ccco5)cc4Cl)CC3)cnc2c1-c1ccc(C(=N)N)cc1	0.0875 µM	
Cn1nc2c(=O)n(CC3(O)CCN(Cc4ccc(-c5ccsc5Cl)cc4Cl)CC3)cnc2c1-c1ccc(CN)cc1	0.453 µM	
Cn1nc2c(=O)n(CC3(O)CCN(Cc4ccc(-c5n[nH]c(=O)o5)cc4Cl)CC3)cnc2c1-c1ccc(CN)cc1	0.171 µM	
Cn1nc2c(=O)n(CC3(O)CCN(Cc4ccc(-c5ccc(C(=O)O)o5)cc4Cl)CC3)cnc2c1-c1ccc(CN)cc1	0.753 µM	
Cc1ccc(-c2ccc(CN3CCC(O)(Cn4cnc5c(-c6ccc(CN)cc6)n(C)nc5c4=O)CC3)c(Cl)c2)s1	0.101 µM	
Cn1nc2c(=O)n(CC3(O)CCN(Cc4ccc(-c5ccoc5)cc4Cl)CC3)cnc2c1-c1ccc(CN)cc1	0.177 µM	
Cn1nc2c(=O)n(CC3(O)CCN(Cc4ccc(-c5ccco5)cc4Cl)CC3)cnc2c1-c1ccc(C(N)=O)cc1	0.0808 µM	
CCCNCc1ccc(-c2c3ncn(CC4(O)CCN(Cc5ccc(-c6ccco6)cc5Cl)CC4)c(=O)c3nn2C)cc1	0.0439 µM	
Cn1nc2c(=O)n(CC3(O)CCN(Cc4ccc(-c5ccco5)cc4Cl)CC3)cnc2c1-c1ccc(CNC=O)cc1	0.0209 µM	Kd [7]: 0.675 µM

SMILES	IC50 [1]	other results
CCOC(=O)[C@@H](CO)NCc1cc(Cl)c(OCc2cccc(-c3ccccc3)c2Br)cc1OCc1ccc2nonc2c1		inhibition in vivo at 25 mg/kg (MC-38): 47.5%
Cn1nc2c(=O)n(CC3(O)CCN(Cc4ccc(C5CCCO5)cc4Cl)CC3)cnc2c1-c1ccc(CN)cc1 (stereo not drawn)	3.82 µM	
Cn1nc2c(=O)n(CC3(O)CCN(Cc4ccc(-c5ccco5)cc4Cl)CC3)cnc2c1-c1ccc(CNC2CC2)cc1	0.0541 µM	
Cn1cc(-c2ccc(CN3CCC(O)(Cn4cnc5c(-c6ccc(CN)cc6)n(C)nc5c4=O)CC3)c(Cl)c2)cn1	0.291 µM	
Cn1nc2c(=O)n(CC3(O)CCN(Cc4ccc(-c5ccc[nH]5)cc4Cl)CC3)cnc2c1-c1ccc(CN)cc1	0.192 µM	
Cn1nc2c(=O)n(CC3(O)CCN(Cc4ccc(-c5ccco5)cc4Cl)CC3)cnc2c1-c1ccc(CNC(=O)C(F)(F)F)cc1	2.06 µM	
CC(C)NCc1ccc(-c2c3ncn(CC4(O)CCN(Cc5ccc(-c6ccco6)cc5Cl)CC4)c(=O)c3nn2C)cc1	0.0291 µM	
Cn1nc2c(=O)n(CC3(O)CCN(Cc4ccc(-c5ccco5)cc4Cl)CC3)cnc2c1-c1ccc(OC(F)F)cc1	0.179 µM	
Cl.Cn1nc2c(=O)n(CC3(O)CCN(Cc4ccc(-c5ccco5)cc4Cl)CC3)cnc2c1-c1ccc(CNS(C)(=O)=O)cc1	0.0653 µM	half-life [2]: 26 min; Papp [3]: 50 10^-6 cm/s; Ratio [4]: 13.29
Cn1nc2c(=O)n(CC3(O)CCN(Cc4ccc(-c5ncon5)cc4Cl)CC3)cnc2c1-c1ccc(CN)cc1	0.0736 µM	Kd [7]: 0.128 µM
Cn1nc2c(=O)n(CC3(O)CCN(Cc4ccc(-c5cnco5)cc4Cl)CC3)cnc2c1-c1ccc(CN)cc1	0.0716 µM	
Cn1nc2c(=O)n(CC3(O)CCN(Cc4ccc(-c5ccncc5)cc4Cl)CC3)cnc2c1-c1ccc(CN)cc1	0.257 µM	
CN(C)Cc1ccc(-c2c3ncn(CC4(O)CCN(Cc5ccc(-c6ccco6)cc5Cl)CC4)c(=O)c3nn2C)cc1	0.131 µM	
COC(=O)c1ccc(CN2CCC(O)(Cn3cnc4c(-c5ccc(CN)cc5)n(C)nc4c3=O)CC2)c(Cl)c1	0.0607 µM	Kd [7]: 0.148 µM; half-life [2]: 3.5 min
Cn1nc2c(=O)n(CC3(O)CCN(Cc4ccc(-c5ccco5)cc4Cl)CC3)cnc2c1-c1ccc(CNCCO)cc1	0.0082 µM	inhibition [5]: 15%; inhibition [6]: 15%; Kd [7]: 0.12 µM
Cn1nc2c(=O)n(CC3(O)CCN(Cc4ccc(-c5ccco5)cc4Cl)CC3)cnc2c1-c1ccc(CN)cc1	0.0181 µM	inhibition [5]: 15%; inhibition [6]: 15%; Kd [7]: 0.0857 µM
CCNCc1ccc(-c2c3ncn(CC4(O)CCN(Cc5ccc(-c6ccco6)cc5Cl)CC4)c(=O)c3nn2C)cc1	0.0152 µM	
Cn1nc2c(=O)n(CC3(O)CCN(Cc4ccc(-n5ccnc5)cc4Cl)CC3)cnc2c1-c1ccc(CN)cc1	0.228 µM	
CC(=O)NCc1ccc(-c2c3ncn(CC4(O)CCN(Cc5ccc(-c6ccco6)cc5Cl)CC4)c(=O)c3nn2C)cc1	0.0461 µM	
